Reference: patent publication US9181234B2, “Antibacterial compounds” (priority 2010, dated 2015)
In brackets after ≈: the same amount, converted by molar mass.

Tests used:
[1] = system: Enterococcus faecalis (Isolate ID ATCC 29212); experiment: Antibacterial activity, MIC, E. faecalis; assay type: cell-based; settings: Gram positive strain, broth microdilution or agar dilution; for MIC: Enterococcus faecalis, ATCC29212
Outline: (§1)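 Per CLSI standard M7-A7, minimum inhibitory concentrations were measured by agar dilution or by broth microdilution.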

[2] = system: Staphylococcus aureus (Isolate ID ATCC 29213); experiment: Antibacterial activity, MIC, S. aureus; assay type: cell-based; settings: broth microdilution or agar dilution; for MIC: Staphylococcus aureus, ATCC29213, Gram positive strain
Outline: as §1

physchem = settings: for solubility at 24 h: kinetic from dmso stock
Outline: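 DMSO doubling dilutions were diluted twenty-fold into 100 mM citrate (pH 4), PBS (pH 7.4) or carbonate-bicarbonate (pH 9). After 24 h equilibration at room temperature, absorbance was read at 620 nm. The reported value is the highest concentration without measurable precipitate.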

[3] = system: Streptococcus pyogenes (Isolate ID ATCC 51339); experiment: Antibacterial activity, MIC, S. pyogenes; assay type: cell-based; settings: broth microdilution or agar dilution; for MIC: Streptococcus pyogenes, ATCC51339, Gram positive strain
Outline: as §1

[4] = system: Haemophilus influenzae (Isolate ID ATCC 49247); experiment: Antibacterial activity, MIC, H. influenzae; assay type: cell-based; settings: Gram negative strain, broth microdilution or agar dilution; for MIC: Haemophilus influenzae, ATCC49247
Outline: as §1

[5] = pH 7.4, aqueous buffer, Max Solubility
[6] = pH 7.4, aqueous buffer, Solubility (pH 7.4)
[7] = pH 7.4, aqueous buffer, Solubility Range
[8] = pH 7.4, aqueous buffer, Solubility Range (maximum solubility)

Compound | MIC [1] | MIC [2] | solubility at 24 h (physchem; [5]) | solubility at 24 h (physchem; [6]) | solubility at 24 h (physchem; [7]) | solubility at 24 h (physchem; [8]) | MIC [3] | MIC [4] | solubility at 24 h (physchem; pH 9, aqueous buffer, Max Solubility) | solubility at 24 h (physchem; pH 9, aqueous buffer, Solubility Range (maximum solubility)) | Antibacterial Activity (MIC) E. faecalis (ATCC 29212) [1] | Antibacterial Activity (MIC) S. aureus (ATCC 29213) ([2]; Gram positive strain) | Max Solubility (physchem; pH 4) | Solubility (pH 7.4) (physchem; pH 7.4) | Antibacterial Activity (MIC) S. pyogenes (ATCC 51339) ([3]; Gram positive strain) | Antibacterial Activity (MIC) H. influenzae (ATCC 49247) [4]
CCNC(=O)Nc1nc2cc(-c3cnc(N4CCC(C)(C(=O)O)CC4)nc3)cc(-c3cnc(C)cn3)c2s1 [Compound 66] | ≤ 0.25 µg/mL | ≤ 0.25 µg/mL | ≥ 800 µg/mL | ≥ 800 µg/mL | > 800 µg/mL | > 800 µg/mL | ≤ 0.25 µg/mL | 0.25 to 1 µg/mL (≈ 0.469 to 1.88 µM) | – | – | – | – | – | – | – | –
CCCC1(C(=O)O)CCN(c2ncc(-c3cc(-c4ccccn4)c4sc(NC(=O)NCC)nc4c3)cn2)CC1 [Compound 117] | ≤ 0.25 µg/mL | ≤ 0.25 µg/mL | – | 400 µg/mL (≈ 733 µM) | 400 to 800 µg/mL (≈ 733 to 1470 µM) | – | ≤ 0.25 µg/mL | 1 to 16 µg/mL (≈ 1.83 to 29.3 µM) | – | – | – | – | – | – | – | –
CCNC(=O)Nc1nc2cc(-c3cnc(N4CCC(O)(C(=O)O)CC4)nc3)cc(-c3ccccn3)c2s1 [Compound 131] | 0.25 to 1 µg/mL (≈ 0.481 to 1.92 µM) | 1 to 16 µg/mL (≈ 1.92 to 30.8 µM) | – | 100 µg/mL (≈ 192 µM) | 12.5 to 400 µg/mL (≈ 24.1 to 770 µM) | – | ≤ 0.25 µg/mL | 1 to 16 µg/mL (≈ 1.92 to 30.8 µM) | – | – | – | – | – | – | – | –
CCNC(=O)Nc1nc2cc(-c3cnc(N4CCC(C)(C(=O)O)CC4)c(F)c3)cc(-c3ccccn3)c2s1 [Compound 36] | ≤ 0.25 µg/mL | ≤ 0.25 µg/mL | – | 50 µg/mL (≈ 93.5 µM) | 12.5 to 400 µg/mL (≈ 23.4 to 748 µM) | – | ≤ 0.25 µg/mL | 1 to 16 µg/mL (≈ 1.87 to 29.9 µM) | 400 µg/mL (≈ 748 µM) | 400 to 800 µg/mL (≈ 748 to 1500 µM) | – | – | – | – | – | –
CCNC(=O)Nc1nc2cc(-c3cnc(N4CCC(C)(C(=O)OCC)CC4)nc3)cc(C3CCN(C(C)=O)CC3)c2s1 [Compound 178] | – | – | – | – | – | – | – | – | – | – | D (“D” activity >16 μg/mL) | D (“D” activity >16 μg/mL) | 6.25 µg/mL | 3.125 μg/mL | C (“C” activity >1.0 μg/mL-16 μg/mL) | D (“D” activity >16 μg/mL)
CCNC(=O)Nc1nc2cc(-c3cnc(N4CCC(CC)(C(=O)O)CC4)nc3)cc(-c3ncnc4[nH]ccc34)c2s1 [Compound 106] | ≤ 0.25 µg/mL | 0.25 to 1 µg/mL (≈ 0.437 to 1.75 µM) | ≥ 800 µg/mL | ≥ 800 µg/mL | > 800 µg/mL | > 800 µg/mL | ≤ 0.25 µg/mL | 1 to 16 µg/mL (≈ 1.75 to 28 µM) | – | – | – | – | – | – | – | –

More lines, main results first:

MIC [1] | MIC [2] | solubility at 24 h (physchem; [5]) | solubility at 24 h (physchem; [6]) | solubility at 24 h (physchem; [7]) | solubility at 24 h (physchem; [8]) | MIC [3] | MIC [4] | solubility at 24 h (physchem; pH 9, aqueous buffer, Max Solubility) | solubility at 24 h (physchem; pH 9, aqueous buffer, Solubility Range (maximum solubility)) | Compound | Antibacterial Activity (MIC) E. faecalis (ATCC 29212) [1] | Antibacterial Activity (MIC) S. aureus (ATCC 29213) ([2]; Gram positive strain) | Max Solubility (physchem; pH 4) | Solubility (pH 7.4) (physchem; pH 7.4) | Antibacterial Activity (MIC) S. pyogenes (ATCC 51339) ([3]; Gram positive strain) | Antibacterial Activity (MIC) H. influenzae (ATCC 49247) [4]
≤ 0.25 µg/mL | ≤ 0.25 µg/mL | ≥ 800 µg/mL | ≥ 800 µg/mL | > 800 µg/mL | > 800 µg/mL | ≤ 0.25 µg/mL | 1 to 16 µg/mL (≈ 1.93 to 30.9 µM) | – | – | CCNC(=O)Nc1nc2cc(-c3cnc(N4CCC(C)(C(=O)O)CC4)nc3)cc(-c3ccncn3)c2s1 [Compound 67] | – | – | – | – | – | –
> 16 µg/mL | > 16 µg/mL | – | 50 µg/mL (≈ 89 µM) | 12.5 to 400 µg/mL (≈ 22.3 to 712 µM) | – | > 16 µg/mL | > 16 µg/mL | – | – | CCNC(=O)Nc1nc2cc(-c3cnc(N4CCC(C)(C(=O)O)CC4)nc3)cc(NC(=O)c3ncccn3)c2s1 [Compound 146, 1-[5-[2-(ethylcarbamoylamino)-7-(pyrimidine-2-carbonylamino)-1,3-benzothiazol-5-yl]pyrimidin-2-yl]-4-methyl-piperidine-4-carboxylic acid] | – | – | – | – | – | –
≤ 0.25 µg/mL | ≤ 0.25 µg/mL | ≥ 800 µg/mL | ≥ 800 µg/mL | > 800 µg/mL | > 800 µg/mL | ≤ 0.25 µg/mL | 1 to 16 µg/mL (≈ 1.83 to 29.2 µM) | – | – | CCNC(=O)Nc1nc2cc(-c3cnc(N4CCC(C)(C(=O)O)CC4)nc3)cc(-c3cccc(OC)n3)c2s1 [Compound 52] | – | – | – | – | – | –
0.25 to 1 µg/mL (≈ 0.449 to 1.8 µM) | > 16 µg/mL | – | 3.12 µg/mL (≈ 5.61 µM) | < 12.5 µg/mL | – | 0.25 to 1 µg/mL (≈ 0.449 to 1.8 µM) | > 16 µg/mL | – | – | CCNC(=O)Nc1nc2cc(-c3cnc(N4CCC(C#N)(C(=O)OCC)CC4)nc3)cc(-c3ccccn3)c2s1 [Compound 174] | – | – | – | – | – | –
0.25 to 1 µg/mL (≈ 0.477 to 1.91 µM) | 1 to 16 µg/mL (≈ 1.91 to 30.5 µM) | ≥ 800 µg/mL | ≥ 800 µg/mL | > 800 µg/mL | > 800 µg/mL | 1 to 16 µg/mL (≈ 1.91 to 30.5 µM) | > 16 µg/mL | – | – | CCNC(=O)Nc1nc2cc(-c3cnc(N4CCC(C)(C(=O)O)CC4)nc3)cc(C3CCOCC3)c2s1 [Compound 47, 1-[5-[2-(ethylcarbamoylamino)-7-tetrahydropyran-4-yl-1,3-benzothiazol-5-yl]pyrimidin-2-yl]-4-methyl-piperidine-4-carboxylic acid] | – | – | – | – | – | –
0.25 to 1 µg/mL (≈ 0.493 to 1.97 µM) | > 16 µg/mL | – | ≥ 800 µg/mL | > 800 µg/mL | – | 0.25 to 1 µg/mL (≈ 0.493 to 1.97 µM) | > 16 µg/mL | – | – | CCNC(=O)Nc1nc2cc(-c3cnc(N4CCC(C)(C(=O)O)CC4)nc3)cc(-c3cn[nH]c3)c2s1 [Compound 25] | – | – | – | – | – | –
